This note sets out measurements from a compilation of properties of binary mixtures (doi:10.1007/s10953-010-9507-z).

The data set is described as follows: xn = mol fraction of the nth substance listed. The following applies: 298.15 K, 101 kPa.

For `CCOC(C)=O` + CCCC[n+]1ccn(C)c1.O=S(=O)([N-]S(=O)(=O)C(F)(F)F)C(F)(F)F, the viscosity stood at 44.4 mPa·s (x1 = 0.0522); 30.6 mPa·s (x1 = 0.1818); 21.1 mPa·s (x1 = 0.2982); 13.67 mPa·s (x1 = 0.4204); 10.91 mPa·s (x1 = 0.4752); 6.54 mPa·s (x1 = 0.5937). Further, the viscosity reads like this: (x1 = 0.6953) 3.93 mPa·s; (x1 = 0.7954) 2.21 mPa·s; (x1 = 0.8933) 1.105 mPa·s.

As to `CCCC[n+]1ccn(C)c1.O=S(=O)([N-]S(=O)(=O)C(F)(F)F)C(F)(F)F` + CCO, the viscosity is on record as 42.6 mPa·s (x2 = 0.0793); 36.8 mPa·s (x2 = 0.1393); 31.4 mPa·s (x2 = 0.2058); 27.3 mPa·s (x2 = 0.2578); 21.6 mPa·s (x2 = 0.345); 19.4 mPa·s (x2 = 0.384). In addition, the viscosity (x2 = 0.4122) was found to be 17.91 mPa·s; the viscosity (x2 = 0.5622) stood at 11.15 mPa·s; the viscosity (x2 = 0.688) was found to be 7.11 mPa·s; the viscosity (x2 = 0.7967) worked out at 4.36 mPa·s; the viscosity (x2 = 0.8984) came out at 2.46 mPa·s.

What is called viscosity is the resistance of a fluid to flow. A low value points to easy flow.
